Measurements reported in US7951956B2, “Benzoimidazole compound capable of inhibiting prostaglandin D synthetase” (Taiho Pharmaceuticals Co., Ltd., priority 2005, dated 2011).

Key:
[1] = target: human hematopoietic synthase (Homo sapiens, UniProt O60760); experiment: Hematopoietic synthase inhibitory activity (Experiment 1); type: biochemical; details: [14C] prostaglandin H2 10 μM, preincubated at 25° C. for 5 minutes, 1 minute reaction; read-out: Concentration of Pharmaceutical Compound Required to Inhibit 50% of Hematopoietic Synthase
Sequence of human hematopoietic synthase (O60760 whole entry): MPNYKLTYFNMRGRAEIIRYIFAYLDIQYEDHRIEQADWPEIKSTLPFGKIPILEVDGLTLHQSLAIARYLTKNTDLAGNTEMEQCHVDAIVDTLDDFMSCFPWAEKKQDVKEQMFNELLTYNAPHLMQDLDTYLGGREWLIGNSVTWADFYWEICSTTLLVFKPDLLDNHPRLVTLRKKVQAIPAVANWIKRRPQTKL
Procedure: Experiment 1 was carried out according to the method of Urade, Y. et al. (J. Biol. Chem. 262, 3820-3825, (1987)). More specifically, the reaction mixture (49 μL); 100 mM Tris-HCl (pH 8.0), 1 mM reduced glutathione, 0.1 mg/mL γ-globulin, and human hematopoietic synthase (quantum sufficient), and a test compound (final concentration: 0.01-100 μM) were preincubated at 25° C. for 5 minutes. In place of the test compound, a DMSO solution (final concentration: 1%) was used in the solvent control group (Control Group). Subsequently, 1 μL of [^14C] prostaglandin H2 (final concentration: 10 μM) was added to start the reaction. One minute after the start of the reaction, 250 μL of a reaction stopper solution (diethylether/methanol/1M citric acid (30/4/1) cooled to −20° C. was added to stop the reaction.
Thereafter, 50 μL of the upper layer portion (organic solvent phase) was applied to a TLC plate and developed at −20° C. for 45 minutes (developer: diethylether/methanol/acetic acid (capacity ratio=90/2/1)). After drying the plate, the plate was exposed to an imaging plate for 1 to 24 hours, and the radioactivity corresponding to prostaglandin D2 was analyzed using an image analyzer (product of FUJIFILM Corporation). The area (%) occupied by the prostaglandin D2 band per lane was calculated, and the concentration of the test compound required to inhibit 50% of the hematopoietic synthase (IC50 value) was calculated by comparison with the Control group in each experiment.

IC50 [1] [nM]	melting point	SMILES
210	239 to 242 °C	CCOC(=O)c1[nH]c(C)c(-c2nc3cc(Oc4ccccc4)ccc3[nH]2)c1C [Compound 68, 4-(5-Phenoxybenzimidazole-2-yl)-3,5-dimethylpyrrole-2-carboxylic acid ethyl ester]
274	143 to 146 °C	Cc1oc(C(N)=O)c(C)c1-c1nc2cc(C(=O)c3ccccc3)ccc2[nH]1 [Compound 2, 4-(5-Benzoylbenzimidazol-2-yl)-3,5-dimethylfuran-2-carboxamide]
109	196 to 210 °C	Cc1[nH]c(C(=O)NCO)c(C)c1-c1nc2cc(C(=O)c3ccccc3)ccc2[nH]1 [Compound 67, (N-Hydroxymethyl)-4-(5-benzoylbenzimidazol-2-yl)-3,5-dimethylpyrrole-2-carboxamide]
491	167 to 172 °C (dec.)	Cc1[nH]c(C(=O)O)c(C)c1-c1nc2cc(Oc3ccccc3)ccc2[nH]1 [Compound 69, 4-(5-Phenoxybenzimidazole-2-yl)-3,5-dimethylpyrrole-2-carboxylic acid]
	128 to 133 °C	O=C(c1ccccc1)c1ccc2nc(-c3ccc[nH]3)[nH]c2c1 [Compound 51, 5-Benzoyl-2-(pyrrol-2-yl)-benzimidazole]
796	203 to 208 °C	Cc1coc(C)c1-c1nc2cc(C(=O)c3ccccc3)ccc2[nH]1 [Compound 1, 5-Benzoyl-2-(2,4-dimethylfuran-3-yl)-benzimidazole]
643	267 to 271 °C	Cc1[nH]c(C(=O)N2CCC(C(=O)O)CC2)c(C)c1-c1nc2cc(C(=O)c3ccccc3)ccc2[nH]1 [Compound 45, ((4-(5-Benzoylbenzimidazol-2-yl)-3,5-dimethylpyrrol-2-yl)-carbonyl)piperidine-4-carboxylic acid]
4800	225 to 229 °C	Cc1cc(C)c(-c2nc3cc(C(=O)c4ccccc4)ccc3[nH]2)[nH]1 [Compound 52, 5-Benzoyl-2-(3,5-dimethylpyrrol-2-yl)-benzimidazole]
110	201 to 203 °C	Cc1[nH]c(/C=C/C#N)c(C)c1-c1nc2cc(C(=O)c3ccccc3)ccc2[nH]1 [Compound 9, 2-(2-Acrylonitrile-3,5-dimethyl-pyrrol-4-yl)-5-benzoylbenzimidazole]
	224 to 229 °C	O=C(c1ccccc1)c1ccc2[nH]c(-c3ccc(P(=O)(O)O)o3)nc2c1 (hydrate or solvate) [Comparative Example 3, 5-Benzophenone-2-(2-phosphono-5-furanyl)benzimidazole dihydrate]
1450	239 to 241 °C	O=C(c1ccccc1)c1ccc2[nH]c(-c3c[nH]c(C(=O)O)c3)nc2c1 [Compound 5, 4-(5-Benzoylbenzimidazol-2-yl)-pyrrole-2-carboxylic acid]
4130	170 °C	O=C(c1ccccc1)c1ccc2[nH]c(-c3ccc(C(=O)O)o3)nc2c1 [Compound 57, 5-(5-Benzoylbenzimidazol-2-yl)-furan-2-carboxylic acid]
758	258 to 260 °C	Cc1[nH]c(C(=O)N2CCC(C(=O)NCCN(C)C)CC2)c(C)c1-c1nc2cc(C(=O)c3ccccc3)ccc2[nH]1 [Compound 46, N-Dimethylaminoethyl-1-((4-(5-benzoylbenzimidazol-2-yl)-3,5-dimethylpyrrol-2-yl)-carbonyl)piperidine-4-carboxamide]
1740	160 to 162 °C	O=C(c1ccccc1)c1ccc2[nH]c(-c3c[nH]c(C(=O)N4CCCC4)c3)nc2c1 [Compound 6, ((4-(5-Benzoylbenzimidazol-2-yl)-pyrrol-2-yl)-carbonyl)pyrrolidine]
3560		O=C(c1ccccc1)c1ccc2[nH]c(-c3ccc(C(=O)N4CCCC4)o3)nc2c1 [Compound 59]
24400		c1ccc(C(OC2CCN(CCCc3nnn[nH]3)CC2)c2ccccc2)cc1 [HQL-79, 4-benzhydryloxy-1-((3-(1H-tetrazol-5-yl)-propyl))piperidine, reference compound]
1250		O=C(c1ccccc1)c1ccc2[nH]c(-c3ccc(C(=O)N4CCSC4)o3)nc2c1 [Compound 63]
124		Cc1[nH]c(C(=O)Nc2ccc3c(c2)OCCO3)c(C)c1-c1nc2cc(C(=O)c3ccccc3)ccc2[nH]1 [Compound 32, N-(3,4-Ethylenedioxyphenyl)-4-(5-benzoylbenzimidazol-2-yl)-3,5-dimethylpyrrole-2-carboxamide]

IC50 [1] [nM]	melting point	SMILES
218		Cc1[nH]c(C#N)c(C)c1-c1nc2cc(Oc3ccccc3)ccc2[nH]1 [Compound 75, 2-(2-Cyano-3,5-dimethylpyrrol-4-yl)-5-phenoxybenzimidazole]
843		Cc1[nH]c(C(=O)N2CCC(C(=O)NCC3CCCCC3)CC2)c(C)c1-c1nc2cc(C(=O)c3ccccc3)ccc2[nH]1 [Compound 50, N-Cyclohexylmethyl-1-((4-(5-benzoylbenzimidazol-2-yl)-3,5-dimethylpyrrol-2-yl)-carbonyl)piperidine-4-carboxamide]
355		CONC(=O)c1[nH]c(C)c(-c2nc3cc(C(=O)c4ccccc4)ccc3[nH]2)c1C [Compound 14, N-(Methoxy)-4-(5-benzoylbenzimidazol-2-yl)-3,5-dimethylpyrrole-2-carboxamide]
109		Cc1oc(C(N)=O)c(C)c1-c1nc2cc(Oc3ccccc3)ccc2[nH]1 [Compound 76, 4-(5-Phenoxybenzimidazole-2-yl)-3,5-dimethylfuran-2-carboxamide]
436		Cc1[nH]c(C(=O)O)c(C)c1-c1nc2cc(C(=O)c3ccccc3)ccc2[nH]1 [Compound 10, 4-(5-Benzoylbenzimidazol-2-yl)-3,5-dimethylpyrrole-2-carboxylic acid]
136		Cc1[nH]c(C(=O)NCC2=NNC(=O)CC2)c(C)c1-c1nc2cc(C(=O)c3ccccc3)ccc2[nH]1 [Compound 38, N-(2,3,4,5-Tetrahydro-3-oxo-pyridazine-6-yl-methyl)-4-(5-benzoylbenzimidazol-2-yl)-3,5-dimethylpyrrole-2-carboxamide]
286		Cc1[nH]c(C(=O)NCC2CCCCC2)c(C)c1-c1nc2cc(C(=O)c3ccccc3)ccc2[nH]1 [Compound 25, N-(Cyclohexylmethyl)-4-(5-benzoylbenzimidazol-2-yl)-3,5-dimethylpyrrole-2-carboxamide]
377		Cc1[nH]c(C(=O)N(C)C)c(C)c1-c1nc2cc(C(=O)c3ccccc3)ccc2[nH]1 [Compound 64, (N,N-Dimethyl)-4-(5-benzoylbenzimidazol-2-yl)-3,5-dimethylpyrrole-2-carboxamide]
29300		O=C(c1ccccc1)c1ccc2[nH]c(-c3ccc(P(=O)(O)O)o3)nc2c1 [Comparative Example 3, 5-Benzophenone-2-(2-phosphono-5-furanyl)benzimidazole dihydrate, reference compound]
791		Cc1[nH]c(C(=O)N2CCC(O)CC2)c(C)c1-c1nc2cc(C(=O)c3ccccc3)ccc2[nH]1 [Compound 43, ((4-(5-Benzoylbenzimidazol-2-yl)-3,5-dimethylpyrrol-2-yl)-carbonyl)-4-hydroxypiperidine]
4780		CN(C)Cc1ccc(-c2nc3cc(C(=O)c4ccccc4)ccc3[nH]2)o1 [Compound 56, 2-(5-Dimethylaminomethyl-furan-2-yl)-5-benzoylbenzimidazole]
263		CON(C)C(=O)c1[nH]c(C)c(-c2nc3cc(Oc4ccccc4)ccc3[nH]2)c1C [Compound 74, (N-Methoxy-N-methyl)-4-(5-phenoxybenzimidazole-2-yl)-3,5-dimethylpyrrole-2-carboxamide]
> 30000		Cc1[nH]c(C(=O)N(C)C)c(C)c1-c1nc2cc(Sc3ccncc3)c(Oc3ccccc3)cc2[nH]1 [Comparative Example 2, (N,N-Dimethyl)-4-(5-(4-pyridylsulfenyl)-6-phenoxybenzimidazole-2-yl)-3,5-dimethylpyrrole-2-carboxamide, reference compound]
223		Cc1[nH]c(C(=O)NCCN2CCCC2)c(C)c1-c1nc2cc(C(=O)c3ccccc3)ccc2[nH]1 [Compound 23, N-(2-Pyrrolidine-1-yl-ethyl)-4-(5-benzoylbenzimidazol-2-yl)-3,5-dimethylpyrrole-2-carboxamide]
2430		O=C(c1ccccc1)c1ccc2[nH]c(-c3ccc(C(=O)NCc4ccc5c(c4)OCO5)o3)nc2c1 [Compound 62, N-(3,4-Methylenedioxyphenylmethyl)-5-(5-benzoylbenzimidazol-2-yl)-furan-2-carboxamide]
871		COC(=O)CNC(=O)c1[nH]c(C)c(-c2nc3cc(C(=O)c4ccccc4)ccc3[nH]2)c1C [Compound 20, N-(1-Methoxycarbonylmethyl)-4-(5-benzoylbenzimidazol-2-yl)-3,5-dimethylpyrrole-2-carboxamide]
	253 to 255 °C	Cc1[nH]c(C=O)c(C)c1-c1nc2cc(C(=O)c3ccccc3)ccc2[nH]1 [Compound 8, 2-(2-Formyl-3,5-dimethyl-pyrrol-4-yl)-5-benzoylbenzimidazole]
